Test results published in PubChem BioAssay AID1963960 (Molecular Pharmacology Branch, DTP, NCI, 2024).

Tested on: MDA-MB-468 spheroids with HUVEC/MSC, viability
Experiment: Anticancer human tumor MDA-MB-468 cell line growth inhibition [PI3K];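 further: spheroids exposed to agents for seven days before readout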;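 on viability, T/C: 100% = DMSO vehicle control viability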
Details: for IC50: curve of first compound; for viability, T/C: stronger effect = lower value
Summary of the method: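 Viability of mixed-cell spheroids was determined after exposure to pairwise combinations, one partner being inavolisib, alpelisib, duvelisib or copanlisib. Highest tested concentration matched clinical Cmax where known and 10 microM where not, descending in half-log steps.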

[1] = second compound 0.0316 µM, first compound 0.0316 µM
[2] = second compound 0.0316 µM, first compound 0.1 µM
[3] = second compound 0.0316 µM, first compound 0.316 µM
[4] = second compound 0.0316 µM, first compound 1 µM
[5] = second compound 0.0316 µM, first compound 3.16 µM
[6] = second compound 0.0316 µM, first compound 10 µM
[7] = second compound 0.1 µM, first compound 0.0316 µM
[8] = second compound 0.1 µM, first compound 0.1 µM
[9] = second compound 0.1 µM, first compound 0.316 µM
[10] = second compound 0.1 µM, first compound 1 µM
[11] = second compound 0.1 µM, first compound 3.16 µM
[12] = second compound 0.1 µM, first compound 10 µM
[13] = second compound 0.316 µM, first compound 0.0316 µM
[14] = second compound 0.316 µM, first compound 0.1 µM
[15] = second compound 0.316 µM, first compound 0.316 µM
[16] = second compound 0.316 µM, first compound 1 µM
[17] = second compound 0.316 µM, first compound 3.16 µM
[18] = second compound 0.316 µM, first compound 10 µM
[19] = second compound 1 µM, first compound 0.0316 µM
[20] = second compound 1 µM, first compound 0.1 µM
[21] = second compound 1 µM, first compound 0.316 µM
[22] = second compound 1 µM, first compound 1 µM
[23] = second compound 1 µM, first compound 3.16 µM
[24] = second compound 1 µM, first compound 10 µM
[25] = second compound 0.00316 µM, first compound 0.0316 µM
[26] = second compound 0.00316 µM, first compound 0.1 µM
[27] = second compound 0.00316 µM, first compound 0.316 µM
[28] = second compound 0.00316 µM, first compound 1 µM
[29] = second compound 0.00316 µM, first compound 3.16 µM
[30] = second compound 0.00316 µM, first compound 10 µM
[31] = second compound 0.01 µM, first compound 0.0316 µM
[32] = second compound 0.01 µM, first compound 0.1 µM
[33] = second compound 0.01 µM, first compound 0.316 µM
[34] = second compound 0.01 µM, first compound 1 µM
[35] = second compound 0.01 µM, first compound 3.16 µM
[36] = second compound 0.01 µM, first compound 10 µM

With `CC(Cn1ccc(-c2ccc(C#N)c(Cl)c2)n1)NC(=O)c1cc(C(C)O)[nH]n1` (stereo unspecified) + CC(Nc1ncnc2nc[nH]c12)c1cc2cccc(Cl)c2c(=O)n1-c1ccccc1 the IC50 (second compound 0.0316 µM) was > 10 µM, the IC50 (second compound 0.1 µM) was > 10 µM and the IC50 (second compound 0.316 µM) was > 10 µM. For the same compound, the IC50 (second compound 1 µM) was > 10 µM, the IC50 (second compound 3.16 µM) was > 10 µM and the IC50 (second compound 10 µM) was < 0.0316 µM. The viability, T/C [1] was 82%, the viability, T/C [2] was 92.4% and the viability, T/C [3] was 90.2%. It also gave a viability, T/C [4] of 90.3%, a viability, T/C [5] of 88.8% and a viability, T/C [6] of 79.1%. For the same compound, the viability, T/C [7] was 86.8%, the viability, T/C [8] was 80.7% and the viability, T/C [9] was 76.5%. The viability, T/C [10] was 88.4%, the viability, T/C [11] was 89% and the viability, T/C [12] was 71.7%. For the same compound, the viability, T/C [13] was 85.7%, the viability, T/C [14] was 93.6% and the viability, T/C [15] was 72.7%. For the same compound, the viability, T/C [16] was 76.1%, the viability, T/C [17] was 70.7% and the viability, T/C [18] was 66.3%. It also gave a viability, T/C [19] of 55.9%, a viability, T/C [20] of 69.1% and a viability, T/C [21] of 60.2%. The viability, T/C [22] was 73.9%, the viability, T/C [23] was 66.6% and the viability, T/C [24] was 57.6%. For the same compound, the viability, T/C (second compound 3.16 µM, first compound 0.0316 µM) was 60.6%, the viability, T/C (second compound 3.16 µM, first compound 0.1 µM) was 58.8% and the viability, T/C (second compound 3.16 µM, first compound 0.316 µM) was 60.8%. For the same compound, the viability, T/C (second compound 3.16 µM, first compound 1 µM) was 52.4%, the viability, T/C (second compound 3.16 µM, first compound 3.16 µM) was 56.5% and the viability, T/C (second compound 3.16 µM, first compound 10 µM) was 47.1%. For the same compound, the viability, T/C (second compound 10 µM, first compound 0.0316 µM) was 45.8%, the viability, T/C (second compound 10 µM, first compound 0.1 µM) was 40.5% and the viability, T/C (second compound 10 µM, first compound 0.316 µM) was 40.7%. The viability, T/C (second compound 10 µM, first compound 1 µM) was 43.1%, the viability, T/C (second compound 10 µM, first compound 3.16 µM) was 44.5% and the viability, T/C (second compound 10 µM, first compound 10 µM) was 38.6%.

For `CC(Cn1ccc(-c2ccc(C#N)c(Cl)c2)n1)NC(=O)c1cc(C(C)O)[nH]n1` (stereo unspecified) + CC(Nc1ccc2c(c1)OCCn1cc(N3C(=O)OCC3C(F)F)nc1-2)C(N)=O, the IC50 (second compound 0.00316 µM) was > 10 µM, the IC50 (second compound 0.01 µM) was > 10 µM and the IC50 (second compound 0.0316 µM) was > 10 µM. For the same compound, the IC50 (second compound 0.1 µM) was > 10 µM, the IC50 (second compound 0.316 µM) was > 10 µM and the IC50 (second compound 1 µM) was > 10 µM. It also gave a viability, T/C [25] of 104%, a viability, T/C [26] of 84.3% and a viability, T/C [27] of 107%. The viability, T/C [28] was 99.4%, the viability, T/C [29] was 101% and the viability, T/C [30] was 88.6%. The viability, T/C [31] was 102%, the viability, T/C [32] was 93.8% and the viability, T/C [33] was 79.3%. It also gave a viability, T/C [34] of 90%, a viability, T/C [35] of 94.6% and a viability, T/C [36] of 77.8%. The viability, T/C [1] was 101%, the viability, T/C [2] was 79.7% and the viability, T/C [3] was 92.5%. The viability, T/C [4] was 90%, the viability, T/C [5] was 88.4% and the viability, T/C [6] was 72.1%. The viability, T/C [7] was 114%, the viability, T/C [8] was 82.2% and the viability, T/C [9] was 80.4%. The viability, T/C [10] was 102%, the viability, T/C [11] was 94.8% and the viability, T/C [12] was 65%. It also gave a viability, T/C [13] of 88.5%, a viability, T/C [14] of 77.7% and a viability, T/C [15] of 96.1%. The viability, T/C [16] was 85.1%, the viability, T/C [17] was 69.9% and the viability, T/C [18] was 64.5%. For the same compound, the viability, T/C [19] was 93%, the viability, T/C [20] was 72.7% and the viability, T/C [21] was 89%. The viability, T/C [22] was 78.8%, the viability, T/C [23] was 66.5% and the viability, T/C [24] was 68%.

For `C[C@@H](NC(=O)c1ncnc(N)c1Cl)c1ncc(C(=O)Nc2cc(C(F)(F)F)c(Cl)cn2)s1` + CC(Nc1ccc2c(c1)OCCn1cc(N3C(=O)OCC3C(F)F)nc1-2)C(N)=O, the IC50 (second compound 0.00316 µM) was > 10 µM, the IC50 (second compound 0.01 µM) was > 10 µM and the IC50 (second compound 0.0316 µM) was > 10 µM. For the same compound, the IC50 (second compound 0.1 µM) was > 10 µM, the IC50 (second compound 0.316 µM) was > 10 µM and the IC50 (second compound 1 µM) was > 10 µM. For the same compound, the viability, T/C [25] was 91.6%, the viability, T/C [26] was 102% and the viability, T/C [27] was 93.7%. It also gave a viability, T/C [28] of 102%, a viability, T/C [29] of 104% and a viability, T/C [30] of 108%. The viability, T/C [31] was 104%, the viability, T/C [32] was 105% and the viability, T/C [33] was 105%. The viability, T/C [34] was 107%, the viability, T/C [35] was 93.3% and the viability, T/C [36] was 81%. The viability, T/C [1] was 104%, the viability, T/C [2] was 92.2% and the viability, T/C [3] was 102%. The viability, T/C [4] was 97.3%, the viability, T/C [5] was 93.3% and the viability, T/C [6] was 81.4%. The viability, T/C [7] was 98.7%, the viability, T/C [8] was 85.2% and the viability, T/C [9] was 93.2%. For the same compound, the viability, T/C [10] was 101%, the viability, T/C [11] was 101% and the viability, T/C [12] was 86.2%. For the same compound, the viability, T/C [13] was 83.3%, the viability, T/C [14] was 83.7% and the viability, T/C [15] was 94.7%. It also gave a viability, T/C [16] of 99.7%, a viability, T/C [17] of 108% and a viability, T/C [18] of 68.2%. The viability, T/C [19] was 97.3%, the viability, T/C [20] was 89.5% and the viability, T/C [21] was 89.6%. It also gave a viability, T/C [22] of 99.5%, a viability, T/C [23] of 91% and a viability, T/C [24] of 74.1%.
